# From patent publication US20200360391A1, “Medicinal Composition for Treating Intractable Heart Disease” (Osaka University, priority 2016, published 2020)
# “Also recorded” adds a separate entry of the source. Where a name gives a salt, the structure may show the parent alone. Read-outs that look alike come from different tables or passages of the source. Marks after values point to notes of the source that are not given here.
# Experiments:
# [1] = system: spontaneous dilated cardiomyopathy (J2N-k) hamster model; experiment: Spontaneous dilated cardiomyopathy (J2N-k) hamster model, 8-week administration from 20 weeks of age (Tests 1-3): echocardiography, body weight; conditions: for Minimal effective dose (screening 2): mg/kg twice per day, oral preparation
# Procedure: The doses of pharmaceutical products were determined based on the no-observed-adverse-effect levels in a long-term toxicity study using rats. δ-Glycan-deficient spontaneous dilated cardiomyopathy (J2N-k) male hamsters (Japan SLC, Inc.) were delivered at 18 weeks of age. After a 2-week quarantine/acclimation, echocardiography was performed.
# Each of the pharmaceutical products (A to K and O) was individually administered twice daily (at an interval of 8 hours or more) by oral gavage, and echocardiography was performed after 4 and 8 weeks (before dissection). Differences from the value before the start of administration (at the time of grouping) (amount of change: Δ) in each group were examined, and the cardiac function (EF value, FS %, etc.) was compared with that in the vehicle group (Group 1). Moreover, the heart was removed […] after the start of administration, and electron microscopy and RNA protein measurement were performed. Specimens for immunopathology were also collected and evaluated.
# Each pharmaceutical product was individually suspended in 0.5% CMC-Na (sodium carboxymethylcellulose; Wako Pure Chemical Industries, Ltd.) before use, and administered. […] To Group 1 (control), 0.5% CNC-Na (vehicle) was administered.
# Each pharmaceutical product was individually suspended in 0.5% CMC-Na (sodium carboxymethylcellulose; Wako Pure Chemical Industries, Ltd.) before use, and administered. Test substance G was suspended in distilled water before use, and administered.
# Reason the doses were set (assuming that the adult body weight was 60 kg, the same amounts as the maximum clinical doses were set) • 1) The clinical dose of C (ozagrel; OZ) was 200 mg twice per day. The dose was thus set to 3.3 mg/kg twice per day. • 2) The clinical dose of D (cilostazol; CS) was 100 mg twice per day. The dose was thus set to 1.7 mg/kg twice per day. • 3) The clinical dose of E (pirfenidone; PF) was 600 mg three times per day, i.e., 1800 mg/day in total. The dose was thus set to 15 mg/kg twice per day. • 4) The clinical dose of G (nintedanib sulfonate; OB) was 150 mg twice per day. The dose was thus set to 2.5 mg/kg twice per day. • 5) The clinical dose of P (carvedilol; CV) was 10 mg twice per day. The dose was thus set to 0.17 mg/kg twice per day. • 6) Preparation 2 (PLGA⋅MS preparation of camostat; B⋅MS): the clinical dose of active substance camostat was 200 mg three times per day, i.e., 600 mg/day in total; thus, intermittent subcutaneous administration at a daily dose of 10 mg/kg once every 4 weeks, twice in total was set. The dose was 1/28 of the total oral dose amount.
# The dose volume in oral administration was 5 mL/kg (the amount of liquid to be administered to each animal was calculated based on the most recent body weight), and administered by oral gavage using a polypropylene disposable syringe and a rat stomach tube.
# The administration period of each pharmaceutical product was 8 weeks.
# [2] = system: rats; experiment: Repeated oral administration toxicity study in rats (dose-setting basis); conditions: mg/kg twice per day, oral preparation
# Excerpt: The dose-setting basis for the doses of the test substances used in pharmacological tests is as described below.
# [3] = system: rat coronary artery complete ischemia model; experiment: Model of ischemia (MI) by rat coronary artery complete ligation (Tests 1 and 2): echocardiography, body weight; conditions: MI Test 2, B 150, G 5, I 30, C 10 mg/kg p.o. b.i.d.; for Body weight: B MS 100, C MS 50, I MS 30 mg/kg s.c. single injection, mean; for value of change in E.F. compared with E.F. on Day 1 / value of change in F.S. compared with F.S. on Day 1: B-MS 100, C-MS 50, F-MS 30 mg/kg s.c. single injection, mean ± S.D.
# [4] = system: rats; conditions: cited from earlier work
# [5] = cited from earlier work; for Cases with side effects (including laboratory test value abnormality): share of cases evaluated for safety
# [6] = system: rats; conditions: rats, cited from earlier work
# [7] = system: spontaneous dilated cardiomyopathy J2N-k baby hamsters; experiment: J2N-k baby hamsters (Test 4): administration alone or in combination, echocardiography, body weight; assay type: in vivo, hamster; conditions: for % FS / EF (%) / value of change in E.F. compared with E.F. at 0 W / value of change in F.S. compared with F.S. at 0 W: Test 4, dose O 0.17, C 3.3, E 15, orally twice daily, mean ± S.D.
# Procedure: δ-Glycan-deficient spontaneous dilated cardiomyopathy (J2N-k) male hamsters (Japan SLC, Inc.) were delivered at 4 weeks of age. After a 1-week quarantine/acclimation, echocardiography was performed. The hamsters were grouped by stratified random assignment based on the EF values and the body weights so that each administration group was equalized.
# Each test substance was individually administered twice daily (at an interval of 8 hours or more) by oral gavage, and echocardiography was performed 4 and 8 weeks after the start of administration (before dissection). Differences from the value before the start of administration (at the time of grouping) (amount of change: A) in each group were examined, and the cardiac function (EF value, FS %, etc.) was compared with that in the vehicle group (Group 1).
# The doses were set according to the dose-setting basis in Test 3, and similarly orally administered twice daily. Effects of administration of combinations of two or three of carvedilol, which is a β-blocker widely used clinically, and ozagrel and/or pirfenidone were examined.
# [8] = Test 2, p.o. b.i.d., NOAEL-based dose
# [9] = Test 2, p.o. b.i.d., NOAEL-based dose, listed as lovastatin
# [10] = Test 4, p.o. b.i.d., clinical dose
compound,measurement,setting,value
"CCCc1nn(C)c2c(=O)[nH]c(-c3cc(S(=O)(=O)N4CCN(C)CC4)ccc3OCC)nc12 [Compound I, Sildenafil citrate]",Body weight 0 W,"[1]; Test 2, at grouping",120.4 g
same,LVIDd 4 W,"[1]; Test 2, p.o. b.i.d.",7.1 mm
same,LVIDd 8 W,"[1]; Test 2, p.o. b.i.d.",7.3 mm
same,LVIDs 4 W,"[1]; Test 2, p.o. b.i.d.",5.9 mm
same,LVIDs 8 W,"[1]; Test 2, p.o. b.i.d.",6.2 ± mm
same,Body weight 2 W,[1]; [8],122.3 g
same,Body weight 3 W,[1]; [8],123.7 g
same,Body weight 4 W,[1]; [8],125.5 g
same,Body weight 5 W,[1]; [8],126.9 g
same,Body weight 6 W,[1]; [8],128.9 g
same,Minimal effective dose (screening 2),[1],0.4 mg/kg
same,Maximum no-observed-adverse-effect level (screening 1),[2],30 mg/kg
same,Body weight,[3]; 1 Day,240.3 g
same,Body weight,[3]; 7 Day,237.3 g
same,Body weight,[3]; 14 Day,263.0 g
same,value of change in E.F. compared with E.F. on Day 1,[3]; 14 Day,<−5.1 ± 2.5> %
same,value of change in F.S. compared with F.S. on Day 1,[3]; 14 Day,<−2.8 ± 1.4> %
same,Body weight,[3]; 21 Day,278.3 g
same,Body weight,[3]; 29 Day,297.5 g
same,value of change in E.F. compared with E.F. on Day 1,[3]; 29 Day,<−7.6 ± 4.3> %
same,value of change in F.S. compared with F.S. on Day 1,[3]; 29 Day,<−4.1 ± 2.3> %
same,Lethal dose,[4]; intravenous injection in rats,≥ 10 mg/kg
same,Lethal dose,[4]; oral administration,≥ 1000 mg/kg
Lovastatin calcium [Compound J],Body weight lower than that in the control group,"[1]; Test 2, 8 weeks after start of administration, 5 mg/kg b.i.d.",about 10%
same,% FS 0 W,"[1]; Test 2, at grouping",17 ± 2%
same,Body weight 0 W,"[1]; Test 2, at grouping",122.9 g
same,EF 0 W,"[1]; Test 2, at grouping",43 ± 3%
same,LVIDd 0 W,"[1]; Test 2, at grouping",6.7 mm
same,LVIDs 0 W,"[1]; Test 2, at grouping",5.6 mm
same,LVIDd 4 W,"[1]; Test 2, p.o. b.i.d.",7.1 mm
same,LVIDd 8 W,"[1]; Test 2, p.o. b.i.d.",7.4 mm
same,LVIDs 4 W,"[1]; Test 2, p.o. b.i.d.",6.0 mm
same,LVIDs 8 W,"[1]; Test 2, p.o. b.i.d.",6.3 ± mm
same,% FS 4 W,[1]; [8],15 ± 1%
same,% FS 8 W,[1]; [8],14 ± 1%
same,% FS value of change at 4 W compared with 0 W,[1]; [8],<−2 ± 1> %
same,% FS value of change at 8 W compared with 0 W,[1]; [8],<−3 ± 1> %
same,Body weight 3 W,[1]; [8],120.8 g
same,Body weight 5 W,[1]; [8],120.3 * g
same,Body weight 7 W,[1]; [8],118.7 ** g
same,Body weight 8 W,[1]; [8],118.0 * g
same,EF 4 W,[1]; [8],39 ± 2%
same,EF 8 W,[1]; [8],37 ± 2%
same,EF value of change at 4 W compared with 0 W,[1]; [8],<−4 ± 1> %
same,EF value of change at 8 W compared with 0 W,[1]; [8],<−6 ± 3> %
same,% FS 4 W,[1]; [9],not significantly higher
same,% FS value of change at 4 W compared with 0 W,[1]; [9],significantly higher
same,LVIDs 8 W,"[1]; Test 2, p.o. b.i.d., listed as lovastatin",significantly lower
same,CK (CPK) elevation cases,"[5]; human, in vivo",1.6%
same,Elevated AST (GOT) and/or ALT (GPT) / liver enzyme cases,"[5]; human, in vivo",1.7%
same,Muscle pain cases,"[5]; human, in vivo",3.2%
same,Cases with side effects (including laboratory test value abnormality),[5],18.8%
same,No-observed-adverse-effect level,[6]; 1 month,15 mg/kg
same,No-observed-adverse-effect level,[6]; 6 months,2 mg/kg
same,No-observed-adverse-effect level,[6]; 13 weeks / 3 months,10 mg/kg
"Cn1c(=O)c2[nH]cnc2n(C)c1=O [Compound H, Theophylline]",LVIDd 4 W,"[1]; Test 2, p.o. b.i.d.",7.0 mm
same,LVIDd 8 W,"[1]; Test 2, p.o. b.i.d.",7.3 mm
same,LVIDs 4 W,"[1]; Test 2, p.o. b.i.d.",5.9 ± mm
same,LVIDs 8 W,"[1]; Test 2, p.o. b.i.d.",6.3 mm
same,% FS 4 W,[1]; [8],not significantly higher
same,% FS value of change at 4 W compared with 0 W,[1]; [8],not significantly higher
same,Body weight 0 W,"[1]; hamster, in vivo",121.4 g
same,Body weight 1 W,"[1]; hamster, in vivo, po",120.2 g
same,Body weight 2 W,"[1]; hamster, in vivo, po",120.2 g
same,Body weight 3 W,"[1]; hamster, in vivo, po",121.0 g
same,Body weight 4 W,"[1]; hamster, in vivo, po",122.4 g
same,Body weight 6 W,"[1]; hamster, in vivo, po",122.6 g
same,Body weight 8 W,"[1]; hamster, in vivo, po",123.6 g
same,Headache (headache/heavy-headedness) cases,"[5]; human, in vivo",2.56%
same,Nausea cases (cilostazol: nausea/vomiting),"[5]; human, in vivo",4.05%
same,Palpitations cases,"[5]; human, in vivo",1.17%
same,Cases with side effects (including laboratory test value abnormality),[5],9.05%
"COc1ccccc1OCCNCC(O)COc1cccc2[nH]c3ccccc3c12 (stereo not shown) [Compound O, Carvedilol]","Cardiac function (EF, FS %) actual measured value and/or amount of change compared with control, 8 W value","[1]; Test 3, clinical dose",significant cardiac function improvement effect
same,"Cardiac function (EF, FS %) actual measured value or change rate compared with control, 4 W value","[1]; Test 3, clinical dose",significant cardiac function improvement effect
same,Cardiac function improvement effect,"[1]; Test 3, clinical dose, summary",cardiac function improvement effect was observed
same,Minimal effective dose (screening 2),[1],0.17 mg/kg
same,Body weight 0 W,"[7]; Test 4, at grouping",71.5 g
same,Action on decrease in left ventricular systolic function,"[7]; Test 4, clinical doses p.o. b.i.d., 8 weeks",significant suppression action on a decrease in left ventricular systolic function; also recorded: action of significantly suppressing a decrease in left ventricular systolic function
same,Body weight 2 W,[7]; [10],84.2 g
same,Body weight 4 W,[7]; [10],92.6 g
same,Body weight 5 W,[7]; [10],97.8 g
same,Body weight 6 W,[7]; [10],101.3 g
same,Body weight 7 W,[7]; [10],104.0 g
same,Body weight 8 W,[7]; [10],106.1 g
same,% FS,[7]; 0 W (start of administration),38.8 ± 3.0%
same,EF (%),[7]; 0 W (start of administration),76.9 ± 3.4%
same,% FS,[7]; 4 W,34.4 ± 1.8%
same,EF (%),[7]; 4 W,71.7 ± 2.3%
same,value of change in E.F. compared with E.F. at 0 W,[7]; 4 W,<−5.2 ± 2.3> %
same,value of change in F.S. compared with F.S. at 0 W,[7]; 4 W,<−4.4 ± 2.1> %
same,% FS,[7]; 8 W,30.1 ± 1.3%
same,EF (%),[7]; 8 W,65.8 ± 1.9%
same,value of change in E.F. compared with E.F. at 0 W,[7]; 8 W,<−11.1 ± 3.8> %
same,value of change in F.S. compared with F.S. at 0 W,[7]; 8 W,<−8.7 ± 3.2> %
